Results taken from patent US8946269B2, “Crystalline forms of a factor Xa inhibitor” (Portola Pharmaceuticals, Inc., priority 2010, dated 2015).

What was measured:
Format in all cases: physicochemical
[1] = Solubility at 25° C. (slurried in solvent 24 hours, liquid quantified by HPLC)
From the text: Solids were checked by XRPD and the liquid was submitted for quantification by HPLC.

pKa determination = settings: amidine
Experimental: This can be performed on a Sirius GlpKa instrument with a D-PAS attachment. Measurements can be made by UV in aqueous and by potentiometric in methanol and water mixtures at 25° C. The titration media is ionic strength adjusted with 0.15 M KCl. The values found in the methanol and water mixtures are corrected to 0% co-solvent via a Yasuda-Shedlovsky extrapolation. The data can be refined using Refinement Pro software version 1.0. Prediction of pKa values can be made using ACD pKa prediction software Ver. 8.08.

[2] = Physical and chemical stability on storage
From the text: FIG. 10 provides XRPD patterns from turnover experiments. A is an XRPD of Form II.

Row | Solubility at 25° C. ([1]; MTBE) | pKa (pKa determination) | Solubility at 25° C. ([1]; Acetone) | Solubility at 25° C. ([1]; Anhydrous ethanol (0.03% water)) | Solubility at 25° C. ([1]; DMF) | Solubility at 25° C. ([1]; IPA) | Solubility at 25° C. ([1]; MeOH, yellow solvate formed) | Solubility at 25° C. ([1]; in ethanol (summary table), listed as Betrixaban Maleate Form II) [mg/mL in ethanol] | time remaining physically and chemically stable ([2]; 25° C. and 60% RH) | time remaining physically and chemically stable ([2]; 40° C. and 75% RH) | Compound
1 | 0.001 | 11.4 |  |  |  |  |  |  |  |  | COc1ccc(NC(=O)c2ccc(C(=N)N(C)C)cc2)c(C(=O)Nc2ccc(Cl)cn2)c1 [Form I, reference compound]
2 | 0.01 |  | 0.99 | 4.8 | >246 | 0.63 | 37.9 (yellow | 4.8 | at least 6 months | at least 6 months | COc1ccc(NC(=O)c2ccc(C(=N)N(C)C)cc2)c(C(=O)Nc2ccc(Cl)cn2)c1 [Form II]
